# Results from patent publication US20050112123A1, “Methods of treating proteinuria” (priority 2003, published 2005).
# What was measured:
# [1] = tested on: heat sensitive mouse podocytes; experiment: MTT cell proliferation assay, heat sensitive mouse podocytes (HSMP), growth permissive; format: cell-based; conditions: heat sensitive mouse podocytes under growth permissive conditions; at higher concentrations than rat podocytes
# Experimental: (§1) Exposure ofpodocvtes to ATRA. Rat podocytes, mouse podocytes, and growth permissive HSMP were plated at a concentration of 15,000 cell/cm^2 in standard media and allowed to adhere overnight.
# [2] = tested on: cultured rat podocytes; experiment: Cell morphology by scanning electron microscopy, cultured rat podocytes; format: cell-based
# Experimental: as §1
# Cell morphology was carefully examined under light microscopy on an inverted scope. Cellular morphology was also examined by scanning electron microscopy on adherent cells fixed in half-strength Karnovsky's solution.
# [3] = tested on: C57BL6 mice with anti-glomerular antibody-mediated podocyte injury; experiment: Anti-glomerular antibody model of podocyte injury: renal function (proteinuria, BUN); format: in vivo, mouse; conditions: for BUN increase: anti-glomerular disease; for proteinuria vs control (vehicle): mice with anti-glomerular disease, ATRA 16.6 mg/kg IP daily, P<0.001, FIG. 3
# Experimental: An antibody-mediated model of podocyte injury was induced in C57BL6 mice with a sheep anti-glomerular antibody (two doses of 0.3 ml/20 gm body weight) over two consecutive days. Kim et al. (1999) Kidney Int 55:2349-2361; and Ophascharoensuk et al. (1998) Kidney Int 54:416-425. After the induction of the anti-glomerular model, but before the development of proteinuria, mice were then divided into an experimental group that received daily injections of ATRA 16.6 mg/kg (IP), and a control group that received vehicle (corn oil). Experimental and control animals were studied on day 7 and 14 (n=5 per group/time point). The podocyte specific proteins WT-1, nephrin, podocin, synaptopodin, were measured by immunostaining at each time point, as was the proliferation marker, PCNA (see above). Using proliferating cell nuclear antigen (PCNA) as a marker of proliferation and WT-1 as a marker for podocytes, the level of podocyte proliferation was determined.
# Renal Function Assessment. Control and experimental mice were placed in metabolic urine collection cages in order to obtain a timed collection for urinalysis. Urine was analyzed for protein content utilizing the sulphosalicylic acid (SSA) method as previously described. Shankland et al. (1996) Kidney Int. 50:116-124. Serum was also collected from mice in order to evaluate blood urea nitrogen (BUN) levels. The BUN kit (Sigma Chemicals, St. Louis, Mo., USA) is based on the direct interaction of urea with diacetyl monomoxime […]. The absorbance obtained from serum samples is compared with a standard curve of increasing concentrations of urea nitrogen standards.
# [4] = tested on: conditionally immortalized wild-type podocytes; experiment: MTT proliferation assay, wild-type (WT) podocytes under growth restriction; format: cell-based, mouse
# Experimental: To test the hypothesis that ATRA altered the proliferative capacity of podocytes in HIV transgenic mice, conditionally immortalized podocytes harvested from transgenic HIV Tg-26 (Tg) and conditionally immortalized podocytes from transgene free or wild-type podocytes (controls) were compared in a series of studies. Both transgenic and wild-type cell lines were initially plated in “growth permissive” conditions (33° C.) and grown in 10 ml of “standard media,” consisting of 90% RPMI 1640 (Invitrogen, Grand Island, N.Y.), 10% fetal bovine serum (Hyclone, Logan, Utah), 1% L-glutamine (Irvine Scientific, Santa Ana, Calif.), 1% pen-strep (Biosource, Rockville, Md.), 1% sodium bicarbonate (Sigma-Aldrich, St Louis, Mo.) and 1% HEPES buffer (Sigma-Aldrich, Santa, Ana, Calif.), and 1% sodium pyruvate (Irvine Scientific, Santa Ana, Calif.). For growth promotion, 5 μl of mouse gamma interferon were added to 10 ml of media. […]
# Each study group was assessed for proliferation (see below) at three different time points as follows: (i) day “1” of growth restriction which was defined as 24 h after plating cells into growth restrictive conditions; (ii) day 7 of growth restrictive conditions. […]
# Cell proliferation was assessed by the MTT (Promega, Madison, Wis.) assay on days 1, 7, and 14 of growth restriction. […]
# [5] = tested on: rat podocytes; experiment: MTT cell proliferation assay, rat podocytes
# [6] = tested on: heat sensitive mouse podocytes; experiment: Immunofluorescent staining of cultured HSMP (nephrin, podocin); conditions: 200 μM ATRA
# [7] = tested on: Tg-26 HIV transgenic heterozygous mice; experiment: Tg-26 HIV transgenic mice (HIV-associated nephropathy) in vivo
# [8] = ATRA treated Tg mice (5 animals)
structure (smiles),measurement,setting,value
"CC1=C(/C=C/C(C)=C/C=C/C(C)=C/C(=O)O)C(C)(C)CCC1 [ATRA, all-trans retinoic acid]",MTT absorbance,[1],significantly reduced MTT absorbance
same,process formation (scanning electron microscopy),[2]; 1 μM ATRA,resulted in the presence of processes
same,process formation (scanning electron microscopy),[2]; Ten 1 μM ATRA,marked increase in the number and length of processes
same,BUN increase,[3]; day 7,not altered
same,BUN increase,[3]; day 14,not altered
same,proteinuria vs control (vehicle),[3]; day 7,significantly reduced proteinuria
same,proteinuria vs control (vehicle),[3]; day 14,significantly reduced proteinuria
same,"proliferation of WT podocytes (MTT), exposed to ATRA vs without ATRA",[4],no measurable difference
same,rat podocyte proliferation (viable cell number by MTT assay),"[5]; 1 μM, 5 μM, 10 μM, 50 μM, 200 μM ATRA, FIG. 1",reduced rat podocyte proliferation in a concentration-dependent fashion
same,MTT absorbance compared to control cells,"[5]; rat podocytes, beginning at one μM, P<0.001",significantly reduced MTT absorbance
same,podocin immunostaining compared to control,[6]; HSMP,increased immunostaining
same,nephrin immunostaining compared to control cells exposed to vehicle,[6]; heat sensitive mouse podocytes,nephrin immunostaining increased
same,collapsed glomeruli,[7]; [8],no collapsed glomeruli
same,glomeruli with 0-25% sclerosis,[7]; [8],4.8%
same,glomeruli with 25-50 sclerosis,[7]; [8],1.2%
same,glomeruli with 50-75% or 75-100% sclerosis,[7]; [8],No glomeruli were seen
same,glomeruli with no sclerosis,"[7]; ATRA treated Tg mice (5 animals), 50 glomeruli per tissue sample",94%
same,segmental sclerosis vs carrier treated transgenic animals,"[7]; Tg mice, 4 months of life",reduced the sclerosis by a statistically significant amount
same,serum BUN,[7]; the different groups,no significant difference
same,proteinuria vs carrier treated transgenic animals (Tg C),"[7]; transgenic mice, ATRA 16 mg/kg intraperitoneal three times a week",tended to have less proteinuria
same,significance of difference in proteinuria vs carrier treated animals,"[7]; transgenic mice, all other time points",not significant
same,significance of difference in proteinuria vs carrier treated animals,"[7]; transgenic mice, at 80 days",statistically significant
same,interstitial disease score (tubular dilatation),[7]; two ATRA treated Tg animals,no tubular dilatation
